In ChEMBL document CHEMBL5634143, “Development of teixobactin analogues containing hydrophobic, non-proteogenic amino acids that are highly potent against multidrug-resistant bacteria and biofilms” (Eur J Med Chem, 2023):
Values after ≈ are worked out from the molar mass of the structure shown. Active and inactive are the calls of the source. The calls are words filed in the database; no cut-off is given here.

What was measured:
Cell membrane [1] = assay: Induction of cytoplasmic membrane depolarization in methicilin-resistant Staphylococcus aureus 21455 at 16 times MIC by DiSC3(5) dye-based fluorescence assay
Cell membrane [2] = assay: Induction of cell membrane […] in methicilin-resistant Staphylococcus aureus 21455 assessed as increase in fluorescence intensity at 8 times MIC by SYTOX green dye based fluorescence analysis; format: cell membranes
Bacillus cereus = assay: Antibacterial activity against Bacillus cereus ATCC 11788 assessed as inhibition of bacterial growth; format: functional
[3] = tested on: Staphylococcus epidermidis; assay: Antibacterial activity against Staphylococcus epidermidis 12228 assessed as inhibition of bacterial growth; format: functional
Staphylococcus aureus [4] = assay: Bactericidal activity against methicilin-resistant Staphylococcus aureus 21455 assessed as reduction in bacterial viability at 2 times MIC observed after 4 hrs by time-kill kinetic assay relative to control; format: functional
[5] = Hemolytic activity in rabbit erythrocytes assessed as hemolysis at 64 microg/ml relative to control; format: toxicity, cell-based, Oryctolagus cuniculus, Erythrocyte; settings: at 64 µg/mL, read-out: Activity
Staphylococcus aureus [6] = assay: Antibacterial activity against methicilin-resistant Staphylococcus aureus 42412 assessed as inhibition of bacterial growth; format: functional
Staphylococcus aureus [7] = assay: Antibacterial activity against methicilin-resistant Staphylococcus aureus ATCC 700699 assessed as inhibition of bacterial growth; format: functional
[8] = tested on: Staphylococcus saprophyticus; assay: Antibacterial activity against Staphylococcus saprophyticus ATCC 49907 assessed as inhibition of bacterial growth; format: functional
[9] = tested on: Staphylococcus saprophyticus; assay: Antibacterial activity against Staphylococcus saprophyticus ATCC 49453 assessed as inhibition of bacterial growth; format: functional
Enterococcus faecium [10] = assay: Antibacterial activity against Vancomycin-resistant Enterococcus […] ATCC 29212 assessed as inhibition of bacterial growth; format: functional; settings: Enterococcus faecalis
Staphylococcus aureus [11] = assay: Antibacterial activity against Staphylococcus aureus 29213 assessed as inhibition of bacterial growth; format: functional
Bacillus subtilis = assay: Antibacterial activity against Bacillus subtilis ATCC 6633 assessed as inhibition of bacterial growth; format: functional
Enterococcus faecium [12] = assay: Antibacterial activity against Vancomycin-resistant Enterococcus […] ATCC 700802 assessed as inhibition of bacterial growth; format: functional
Staphylococcus aureus [13] = assay: Bactericidal activity against methicilin-resistant Staphylococcus aureus 21455 assessed as reduction in bacterial colony forming unit at 16 times MIC observed after 2 hrs by time-kill kinetic assay; format: functional
[14] = tested on: Staphylococcus saprophyticus; assay: Antibacterial activity against Staphylococcus saprophyticus ATCC BAA 750 assessed as inhibition of bacterial growth; format: functional
Staphylococcus aureus [15] = assay: Antibacterial activity against methicilin-resistant Staphylococcus aureus 1003 assessed as inhibition of bacterial growth; format: functional
Enterococcus faecium [16] = assay: Antibacterial activity against Vancomycin-resistant Enterococcus faecium 1014 assessed as inhibition of bacterial growth; format: functional
Cell membrane [17] = assay: Induction of cell membrane […] in methicilin-resistant Staphylococcus aureus 21455 assessed as increase in fluorescence intensity at 16 times MIC by SYTOX green dye based fluorescence analysis; format: cell membranes
Staphylococcus aureus [18] = assay: Antibacterial activity against Staphylococcus aureus 4299 assessed as inhibition of bacterial growth; format: functional
Staphylococcus aureus [19] = assay: Antibacterial activity against methicilin-resistant Staphylococcus aureus 21455 assessed as inhibition of bacterial growth; format: functional
[20] = tested on: Staphylococcus saprophyticus; assay: Antibacterial activity against Staphylococcus saprophyticus ATCC 15305 assessed as inhibition of bacterial growth; format: functional
Staphylococcus aureus [21] = assay: Bactericidal activity against methicilin-resistant Staphylococcus aureus 21455 assessed as inhibition of bacterial growth by time-kill kinetic assay; format: functional, organism-based
Cell membrane [22] = assay: Induction of cytoplasmic membrane depolarization in methicilin-resistant Staphylococcus aureus 21455 at 8 times MIC by DiSC3(5) dye-based fluorescence assay
[23] = Hemolytic activity in rabbit erythrocytes assessed as hemolysis at 256 microg/ml relative to control; format: toxicity, cell-based, Oryctolagus cuniculus, Erythrocyte; settings: at 256 µg/mL, read-out: Activity
[24] = tested on: Staphylococcus epidermidis; assay: Antibacterial activity against Staphylococcus epidermidis 1457 assessed as inhibition of biofilm formation at 10 ug/ml incubated for 5 hrs by confocal microscopic analysis; format: functional, organism-based; settings: dose 10.0 µg/ml
Staphylococcus aureus [25] = assay: Antibacterial activity against Staphylococcus aureus 15981 assessed as inhibition of biofilm formation at 10 ug/ml incubated for 5 hrs by confocal microscopic analysis; format: functional, organism-based; settings: dose 10.0 µg/ml

| SMILES | MIC (Bacillus cereus) [µg/mL] | MIC [3] [µg/mL] | MIC (Staphylococcus aureus [6]) [µg/mL] | MIC (Staphylococcus aureus [7]) [µg/mL] | MIC [8] [µg/mL] | MIC [9] [µg/mL] | MIC (Enterococcus faecium [10]) [µg/mL] | MIC (Staphylococcus aureus [11]) [µg/mL] | MIC (Bacillus subtilis) [µg/mL] | MIC (Enterococcus faecium [12]) [µg/mL] | MIC [14] [µg/mL] | MIC (Staphylococcus aureus [15]) [µg/mL] | MIC (Enterococcus faecium [16]) [µg/mL] | MIC (Staphylococcus aureus [18]) [µg/mL] | MIC (Staphylococcus aureus [19]) [µg/mL] | MIC [20] [µg/mL] | further results |
| --- | --- | --- | --- | --- | --- | --- | --- | --- | --- | --- | --- | --- | --- | --- | --- | --- | --- |
| CC[C@H](C)[C@H](NC(=O)[C@@H](Cc1ccccc1)NC)C(=O)N[C@@H](CCCNC(=N)N)C(=O)N[C@H](CCCNC(=N)N)C(=O)N[C@@H](C(=O)N[C@H](C(=O)N[C@@H](CO)C(=O)N[C@H]1C(=O)N[C@@H](CCCNC(=N)N)C(=O)N[C@@H](C2CCCCC2)C(=O)N[C@@H]([C@@H](C)CC)C(=O)O[C@H]1C)[C@@H](C)CC)[C@@H](C)CC | 0.5 (≈ 0.355 µM) | 0.063 (≈ 0.0447 µM) | 1 (≈ 0.709 µM) | 1 (≈ 0.709 µM) | 0.063 (≈ 0.0447 µM) | 0.063 (≈ 0.0447 µM) | 2 (≈ 1.42 µM) | 0.5 (≈ 0.355 µM) | 0.063 (≈ 0.0447 µM) | 4 (≈ 2.84 µM) | < 0.063 | 1 (≈ 0.709 µM) | 2 (≈ 1.42 µM) | 1 (≈ 0.709 µM) | 2 (≈ 1.42 µM) | < 0.063 | Activity (Cell membrane [1]): Active; Activity (Cell membrane [2]): 65.5%; Activity (Staphylococcus aureus [4]): >=99.9%; hemolysis at 64 microg/ml [5]: 5.4%; Activity (Staphylococcus aureus [13]): >=3 log10CFU; Activity (Cell membrane [17]): 70.2%; Activity (Staphylococcus aureus [21]): Dose-Dependent Effect; Activity (Cell membrane [22]): Active; hemolysis at 256 microg/ml [23]: 25% |
| CN[C@H](CC(C)C)C(=O)N[C@H]1C(=O)N[C@@H](CC(N)=O)C(=O)N[C@H]2C(=O)N[C@H]3C(=O)N[C@H](C(=O)N[C@H](C(=O)O)c4cc(O)cc(O)c4-c4cc3ccc4O)[C@H](O)c3ccc(c(Cl)c3)Oc3cc2cc(c3O[C@@H]2O[C@H](CO)[C@@H](O)[C@H](O)[C@H]2O[C@H]2C[C@](C)(N)[C@H](O)[C@H](C)O2)Oc2ccc(cc2Cl)[C@H]1O |  |  |  |  |  |  |  |  |  |  |  |  |  |  |  |  | Activity [24]: Active; Activity (Staphylococcus aureus [25]): Active |
| CC[C@H](C)[C@H](NC(=O)[C@@H](Cc1ccccc1)NC)C(=O)N[C@@H](CCCNC(=N)N)C(=O)N[C@H](CCCNC(=N)N)C(=O)N[C@@H](C(=O)N[C@H](C(=O)N[C@@H](CO)C(=O)N[C@H]1C(=O)N[C@@H](C)C(=O)N[C@@H](C2CCCCC2)C(=O)N[C@@H]([C@@H](C)CC)C(=O)O[C@H]1C)[C@@H](C)CC)[C@@H](C)CC | 2 (≈ 1.51 µM) | 0.063 (≈ 0.0476 µM) | 0.063 (≈ 0.0476 µM) | 0.25 (≈ 0.189 µM) | 0.063 (≈ 0.0476 µM) | 0.125 (≈ 0.0944 µM) | 2 (≈ 1.51 µM) | 0.063 (≈ 0.0476 µM) | 0.063 (≈ 0.0476 µM) | 2 (≈ 1.51 µM) | < 0.063 | 0.5 (≈ 0.377 µM) | 1 (≈ 0.755 µM) | 0.125 (≈ 0.0944 µM) | 0.25 (≈ 0.189 µM) | < 0.063 | Activity (Cell membrane [1]): Active; Activity (Cell membrane [2]): Active; Activity (Staphylococcus aureus [4]): >=99.9%; hemolysis at 64 microg/ml [5]: 3.7%; Activity (Staphylococcus aureus [13]): >=3 log10CFU; Activity (Cell membrane [17]): Active; Activity [24]: Active; Activity (Staphylococcus aureus [25]): Active; Activity (Staphylococcus aureus [21]): Dose-Dependent Effect; Activity (Cell membrane [22]): Active; hemolysis at 256 microg/ml [23]: 18% |
| CCC[C@@H]1NC(=O)[C@H](CCCNC(=N)N)NC(=O)[C@H](NC(=O)[C@H](CO)NC(=O)[C@@H](NC(=O)[C@H](NC(=O)[C@@H](CCC(N)=O)NC(=O)[C@H](CO)NC(=O)[C@@H](NC(=O)[C@@H](Cc2ccccc2)NC)[C@@H](C)CC)[C@@H](C)CC)[C@@H](C)CC)[C@H](C)OC(=O)[C@H]([C@@H](C)CC)NC1=O | 0.5 (≈ 0.393 µM) | 0.063 (≈ 0.0495 µM) | 0.063 (≈ 0.0495 µM) | 0.5 (≈ 0.393 µM) | 0.063 (≈ 0.0495 µM) | 0.063 (≈ 0.0495 µM) | 2 (≈ 1.57 µM) | 0.5 (≈ 0.393 µM) | 0.063 (≈ 0.0495 µM) | 1 (≈ 0.786 µM) | 0.063 (≈ 0.0495 µM) | 1 (≈ 0.786 µM) | 2 (≈ 1.57 µM) | 0.25 (≈ 0.196 µM) | 0.25 (≈ 0.196 µM) | 0.063 (≈ 0.0495 µM) |  |
| CCCCCCCCCC(=O)N[C@@H](Cc1c[nH]c2ccccc12)C(=O)N[C@H](CC(N)=O)C(=O)N[C@@H](CC(=O)O)C(=O)N[C@@H]1C(=O)NCC(=O)N[C@@H](CCCN)C(=O)N[C@@H](CC(=O)O)C(=O)N[C@H](C)C(=O)N[C@@H](CC(=O)O)C(=O)NCC(=O)N[C@H](CO)C(=O)N[C@@H]([C@H](C)CC(=O)O)C(=O)N[C@@H](CC(=O)c2ccccc2N)C(=O)O[C@@H]1C | 0.125 (≈ 0.0771 µM) | 0.125 (≈ 0.0771 µM) | 1 (≈ 0.617 µM) | 2 (≈ 1.23 µM) | 0.125 (≈ 0.0771 µM) | 0.125 (≈ 0.0771 µM) | 1 (≈ 0.617 µM) | 0.25 (≈ 0.154 µM) | 0.125 (≈ 0.0771 µM) | 1 (≈ 0.617 µM) | 0.125 (≈ 0.0771 µM) | 2 (≈ 1.23 µM) | 2 (≈ 1.23 µM) | 0.25 (≈ 0.154 µM) | 0.5 (≈ 0.309 µM) | 0.125 (≈ 0.0771 µM) |  |
| CC[C@H](C)[C@H](NC(=O)[C@@H](Cc1ccccc1)NC)C(=O)N[C@@H](CCCNC(=N)N)C(=O)N[C@H](CCC(N)=O)C(=O)N[C@@H](C(=O)N[C@H](C(=O)N[C@@H](CO)C(=O)N[C@H]1C(=O)N[C@@H](C)C(=O)N[C@@H](C2CCCCC2)C(=O)N[C@@H]([C@@H](C)CC)C(=O)O[C@H]1C)[C@@H](C)CC)[C@@H](C)CC | 0.063 (≈ 0.0486 µM) | 0.063 (≈ 0.0486 µM) | 0.063 (≈ 0.0486 µM) | 0.063 (≈ 0.0486 µM) | 0.063 (≈ 0.0486 µM) | < 0.063 | 0.125 (≈ 0.0964 µM) | 0.063 (≈ 0.0486 µM) | 0.063 (≈ 0.0486 µM) | 0.063 (≈ 0.0486 µM) | 0.063 (≈ 0.0486 µM) | 0.063 (≈ 0.0486 µM) | 0.063 (≈ 0.0486 µM) | 0.063 (≈ 0.0486 µM) | 0.125 (≈ 0.0964 µM) | < 0.063 |  |
| CCC[C@@H]1NC(=O)[C@H](CCCNC(=N)N)NC(=O)[C@H](NC(=O)[C@H](CO)NC(=O)[C@@H](NC(=O)[C@H](NC(=O)[C@@H](CCC(N)=O)NC(=O)[C@H](CCCNC(=N)N)NC(=O)[C@@H](NC(=O)[C@@H](Cc2ccccc2)NC)[C@@H](C)CC)[C@@H](C)CC)[C@@H](C)CC)[C@H](C)OC(=O)[C@H]([C@@H](C)CC)NC1=O | 1 (≈ 0.745 µM) | 0.063 (≈ 0.047 µM) | 0.125 (≈ 0.0932 µM) | 0.25 (≈ 0.186 µM) | 0.063 (≈ 0.047 µM) | 0.063 (≈ 0.047 µM) | 2 (≈ 1.49 µM) | 0.5 (≈ 0.373 µM) | 0.063 (≈ 0.047 µM) | 2 (≈ 1.49 µM) | 0.063 (≈ 0.047 µM) | 1 (≈ 0.745 µM) | 2 (≈ 1.49 µM) | 0.25 (≈ 0.186 µM) | 0.5 (≈ 0.373 µM) | 0.125 (≈ 0.0932 µM) |  |
